{"source": "patent US20090088411A1", "about": "“No-donating corticosteroid with improved pharmacokinetic, anti-inflammatory and vasodilatory properties” (Topigen Pharmaceuticals Inc., priority 2007, published 2009)", "key": {"[1]": {"assay": "Peak flow measurements (PEF, miniwright meter)", "format": "in vivo, humans", "conditions": "mean (SD)", "description": "(§1) Although this study was only powered for neutrophils, the following parameters were also evaluated: sputum total cell and differential cell counts, using known methods, on days 0, 15 and day 22; pre-dose FEV1 measurements on days 0, 1, 14, 15 and 22; peak flow measurements throughout the study (miniwright meter); use of daily rescue medication (salbutamol) throughout the study; the response to methacholine challenge test; and the eNO levels (chemiluminescence after reaction with ozone) on days 0, 15 and 22 and plasma CRP levels on days 0, 15 and 22.\n(§2) Those subjects who completed the 14-day run-in period were assigned to receive either an inhaled version of a compound of the present invention (in this case, budesonide 21-(4′-nitrooxymethyl)benzoate, designated hereafter as “TPI-1020”) or budesonide over a 21-day period. The doses administered were based on equimolar amounts of budesonide and were as follows: budesonide 400 μg bid for 14 days then 800 μg bid for 7 days; TPI-1020: 600 μg bid for 14 days then 1200 μg bid for 7 days. Study treatments were delivered in lactose-based blends using the capsule-based Aeroliser dry powder inhaler. Budesonide capsules (Miflonide®, Novartis Pharmaceuticals) delivered 383 μg as compared to 423 μg of budesonide for TPI-1020 (equivalent to 9.5% more budesonide delivered to the body in the TPI-1020 group). However, the fine particle dose of budesonide was 104 μg for the budesonide capsules and only 78 μg for the TPI-1020 capsules (equivalent to 25% less budesonide delivered to the lung in the TPI-1020 group). No other asthma medication except rescue salbutamol was permitted during the study."}, "[2]": {"set-up": "species or system humans", "conditions": "human, in vivo", "excerpt": "(§3) A clinical study was undertaken in humans to test certain aspects of a preferred NO-donating budesonide derivative, TPI-1020, as compared to the corticosteroid, budesonide which was not modified with a NO-donating moiety. Specifically, the objectives of this study were to determine the safety, pharmacodynamic and pharmacokinetic activity of multiple doses of inhaled NO-donating budesonide derivatives compared to that of equimolar doses of inhaled budesonide in subjects with mild asthma who smoke. We chose patients with asthma who smoke since these patients had reported to have not only an increase in eNO but also an increase in neutrophils within their sputum (as described in COPD). While assessing the safety of these compounds in such patients we could thus explore the effects of the same in patients with increased sputum neutrophils.\nas §2\nThe total number of adverse events reported by patients receiving budesonide and TPI-1020 is graphically depicted in FIG. 1. More specifically, FIG. 1 depicts the total number of either treatment-related or physician-determined adverse events for each drug during the 21 day therapeutic period."}, "[3]": {"assay": "Methacholine challenge test (PC20)", "format": "in vivo, humans", "conditions": "mean (SD)", "description": "as §1, §2"}, "FEV1 spirometry": {"assay": "FEV1 spirometry", "format": "in vivo, humans", "conditions": "mean (SD)", "description": "as §1, §2"}, "[4]": {"assay": "Use of daily rescue medication (salbutamol)", "format": "in vivo, humans", "conditions": "mean (SD)", "description": "as §1, §2"}, "sputum eosinophils": {"tested_on": "sputum eosinophils", "assay": "Sputum differential cell count: eosinophils", "format": "in vivo, humans", "conditions": "mean (SD)", "description": "as §1, §2"}, "[5]": {"assay": "Supine and standing blood pressure (vital signs), clinical study", "format": "in vivo, humans", "conditions": "after 22 days; p=0.015 between groups", "description": "as §2"}, "[6]": {"assay": "Asthma control scoring system questionnaire (ACSS)", "format": "in vivo, humans", "conditions": "mean (SD)", "description": "as §2"}, "C-reactive protein (CRP)": {"tested_on": "C-reactive protein (CRP)", "assay": "Plasma CRP levels", "format": "in vivo, humans", "conditions": "for CRP (mg/L): mean (SD)", "description": "as §1, §2"}, "[7]": {"tested_on": "exhaled nitric oxide (eNO)", "assay": "Exhaled NO levels (chemiluminescence)", "format": "in vivo, humans", "conditions": "for eNO (ppb): mean (SD)", "description": "as §1, §2"}, "sputum neutrophils": {"tested_on": "sputum neutrophils", "assay": "Sputum differential cell count: neutrophils", "format": "in vivo, humans", "conditions": "for median sputum neutrophils: all patients", "excerpt": "as §3, §1, §2\nThe sample size was chosen to provide information about the primary study objective (safety) and with the power to detect a 20% difference in the decrease in sputum neutrophils with TPI-1020, versus that occurring with budesonide. There are no published studies in mild smokers with asthma that have described the variability in sputum neutrophils. However, based on the COPD publication by Gamble et al., almost all patients with COPD have increased sputum neutrophils (>20%). We calculated that if 13 subjects per group completed the study, a difference of 20% in neutrophils (%) between groups could be detected with a power of 80%."}, "[8]": {"tested_on": "HPA (hypothalamic-pituitary-adrenal) axis", "assay": "Morning plasma cortisol level", "source_text": "(§4) This undesirable HPA axis suppression is typically measured by a reduction in urinary cortisol excretion.\n(§5) Safety parameters consisted of adverse events and serious adverse events, vital signs, asthma symptoms, laboratory determinations of CBC, urinalysis, regular blood biochemistry, plasma C-reactive protein (CRP), plasma and urinary free cortisol levels, spirometry and electrocardiograms (ECGs)."}, "blood eosinophils": {"tested_on": "blood eosinophils", "assay": "Blood eosinophils", "format": "in vivo, humans", "conditions": "mean (SD)", "description": "as §2"}, "blood lymphocytes": {"tested_on": "blood lymphocytes", "assay": "Blood lymphocytes", "format": "in vivo, humans", "conditions": "mean (SD)", "description": "as §2"}, "[9]": {"tested_on": "HPA (hypothalamic-pituitary-adrenal) axis", "assay": "24-hour urinary free cortisol", "conditions": "vs baseline", "source_text": "as §4, §5"}}, "data": [{"compound": "CCCC1O[C@@H]2C[C@H]3[C@@H]4CCC5=CC(=O)C=C[C@]5(C)[C@H]4[C@@H](O)C[C@]3(C)[C@]2(C(=O)CO)O1", "note": "(some centres unmarked) [budesonide, reference compound]", "values": [{"measurement": "PEF (AM, L/min)", "setting": "[1]; Baseline", "result": "405.5 (91) L/min"}, {"measurement": "PEF (AM, L/min)", "setting": "[1]; Day 22", "result": "423.4 (89.5) L/min"}, {"measurement": "severe adverse events", "setting": "[2]", "result": "one"}, {"measurement": "drug-related adverse events", "setting": "[2]; 21 days", "result": 9}, {"measurement": "number of subjects that reported adverse events", "setting": "[2]; 21 days", "result": 7}, {"measurement": "total treatment-emergent adverse events", "setting": "[2]; 21 days", "result": 39}, {"measurement": "PC20 (mg/ml)", "setting": "[3]; Baseline", "result": "1.4 (1.3) mg/ml"}, {"measurement": "PC20 (mg/ml)", "setting": "[3]; Day 22", "result": "2.0 (1.6) mg/ml"}, {"measurement": "FEV1 (ITT, L)", "setting": "FEV1 spirometry; Baseline", "result": "3.3 (0.8) L"}, {"measurement": "FEV1 (PD, L)", "setting": "FEV1 spirometry; Baseline", "result": "3.2 (0.7) L"}, {"measurement": "FEV1 (PD, L)", "setting": "FEV1 spirometry; Day 1", "result": "3.1 (0.6) L"}, {"measurement": "FEV1 (PD, L)", "setting": "FEV1 spirometry; Day 14", "result": "3.3 (0.7) L"}, {"measurement": "FEV1 (PD, L)", "setting": "FEV1 spirometry; Day 15", "result": "3.3 (0.7) L"}, {"measurement": "FEV1 (ITT, L)", "setting": "FEV1 spirometry; Day 22", "result": "3.3 (0.8) L"}, {"measurement": "FEV1 (PD, L)", "setting": "FEV1 spirometry; Day 22", "result": "3.3 (0.7) L"}, {"measurement": "Doses of Rescue Rx", "setting": "[4]; Baseline", "result": "17 (15)"}, {"measurement": "Rescue free days (%)", "setting": "[4]; Baseline", "result": "40.9 (41) %"}, {"measurement": "Doses of Rescue Rx", "setting": "[4]; Day 22", "result": "3.5 (4)"}, {"measurement": "Rescue free days (%)", "setting": "[4]; Day 22", "result": "68.4 (32) %"}, {"measurement": "Sputum eos (%)", "setting": "sputum eosinophils; Baseline", "result": "2.4 (3.3) %"}, {"measurement": "Sputum eos (%)", "setting": "sputum eosinophils; Day 22", "result": "1.0 (1.0) %"}, {"measurement": "change in standing pulse pressure", "setting": "[5]", "result": "+4.85 mmHg"}, {"measurement": "ACSS", "setting": "[6]; Baseline", "result": "73.1 (14)"}, {"measurement": "ACSS", "setting": "[6]; Day 22", "result": "82.4 (8.4)"}, {"measurement": "patients in whom CRP decreased", "setting": "C-reactive protein (CRP); 22 days of therapy compared to baseline", "result": 33.2, "unit": "%"}, {"measurement": "CRP (mg/L)", "setting": "C-reactive protein (CRP); Baseline", "result": "2.7 (4.3) mg/L"}, {"measurement": "CRP (mg/L)", "setting": "C-reactive protein (CRP); Day 22", "result": "2.5 (1.4) mg/L"}, {"measurement": "increase in plasma CRP", "setting": "C-reactive protein (CRP); day 15 versus baseline, p=0.03 between groups", "result": 0.7, "unit": "mg/L"}, {"measurement": "eNO (ppb)", "setting": "[7]; Baseline", "result": "19 (17.6) ppb"}, {"measurement": "eNO (ppb)", "setting": "[7]; Day 22", "result": "9.8 (7.6) ppb"}, {"measurement": "decrease in eNO", "setting": "[7]; equimolar doses, baseline to day 22", "result": 9.2, "unit": "ppb"}, {"measurement": "mean sputum neutrophils", "setting": "sputum neutrophils; after 22 days, post hoc, patients with baseline sputum neutrophils <20% (normal)", "result": 3.95, "unit": "%"}, {"measurement": "mean sputum neutrophils", "setting": "sputum neutrophils; after 22 days, post hoc, patients with baseline sputum neutrophils >20%", "result": 51.9, "unit": "%"}, {"measurement": "mean sputum neutrophils", "setting": "sputum neutrophils; baseline, post hoc, patients with baseline sputum neutrophils <20% (normal)", "result": 4.25, "unit": "%"}, {"measurement": "mean sputum neutrophils", "setting": "sputum neutrophils; baseline, post hoc, patients with baseline sputum neutrophils >20%", "result": 55.1, "unit": "%"}, {"measurement": "median sputum neutrophils", "setting": "sputum neutrophils; day 0 prior to therapy", "result": 39.6, "unit": "%"}, {"measurement": "increase in median sputum neutrophils", "setting": "sputum neutrophils; day 0 to day 22, all patients", "result": 3.7, "unit": "%"}, {"measurement": "median sputum neutrophils", "setting": "sputum neutrophils; day 22 (end of therapy)", "result": 41.1, "unit": "%"}, {"measurement": "decrease in mean sputum neutrophils", "setting": "sputum neutrophils; over 22 days, post hoc, patients with baseline sputum neutrophils >20%", "result": 5.8, "unit": "%"}, {"measurement": "morning plasma cortisol level", "setting": "[8]; baseline", "result": 13.1, "unit": "µg/dL"}, {"measurement": "morning plasma cortisol level", "setting": "[8]; day 15", "result": 10.9, "unit": "µg/dL"}, {"measurement": "morning plasma cortisol level", "setting": "[8]; day 22", "result": 11.4, "unit": "µg/dL"}, {"measurement": "Blood eos (%)", "setting": "blood eosinophils; Baseline", "result": "2.3 (2.3) %"}, {"measurement": "Blood eos (%)", "setting": "blood eosinophils; Day 22", "result": "2.1 (1.6) %"}, {"measurement": "Blood lymphocytes (%)", "setting": "blood lymphocytes; Baseline", "result": "14.9 (13) %"}, {"measurement": "Blood lymphocytes (%)", "setting": "blood lymphocytes; Day 22", "result": "22.5 (15.8) %"}, {"measurement": "effect on 24-hour urinary free cortisol", "setting": "[9]", "result": "significantly decreased"}]}]}
